Reference: paper PMC3358459 (Journal of Pharmaceutical and Biomedical Analysis, 2012)

Key:
Stability of R- = format: in vitro ADME, human; settings: for Remained concentration: human plasma with 20 mM glutathione, added concentration 3.585 μg/mL, n=3, Mean±S.D.
[1] = cited from earlier work

Cc1cc2c(C(C)C)c(O)c(O)c(C=O)c2c(O)c1-c1c(C)cc2c(C(C)C)c(O)c(O)c(C=O)c2c1O [R-(-)-gossypol]
Stability in mobile phase (acetonitrile/water (80:20), 24hr at 4°C): good stability
Effect of antioxidants on stability in plasma (Stability of R-; 5 μg/mL in plasma with 20 mM reduced glutathione and 1% ascorbic acid, 4°C): can improve the stability
Remained concentration (Stability of R-; -80°C, 1 month): 111.8±5.6%
Remained concentration (Stability of R-; on ice, 4hr): 103.8±6.1%
Remained concentration (Stability of R-; three freeze-thaw cycles): 86.9±1.1%
Degraded in plasma (Stability of R-; plasma, room temperature, over 24hr, compared to freshly prepared samples): more than 60%

R-(-)-gossypol acetic acid
Time stock solution was stable (1mg/mL in acetonitrile, -70°C): 3 months

Cc1cc2c(C(C)C)c(O)c(O)c(C=O)c2c(O)c1-c1c(C)cc2c(C(C)C)c(O)c(O)c(C=O)c2c1O [gossypol]
Stability in acetonitrile ([1]; acetonitrile): stable
Stability in methanol ([1]; methanol, even at 5°C): decompose
Stability in solvents ([1]; water, methanol, ethanol and alcoholic solvents): unstable
Stability of quality control plasma samples (Stability of R-; plasma with 20 mM glutathione, -70°C for 1 month): stable
Freeze-thaw stability (Stability of R-; plasma with 20 mM glutathione, after 3 cycles, lower concentration): significant degradation
Stability of quality control plasma samples (Stability of R-; plasma with 20 mM glutathione, on ice for 4 hr): stable
